Assay results from patent US7405240B2, “Substituted cyclopentanes or cyclopentanones as therapeutic agents” (Allergan, Inc., priority 2006, dated 2008).

Legend:
hEP2 [1] = target: T1, hEP2 (Homo sapiens, UniProt P43116); experiment: cAMP assay, hEP2; format: cell-based
normotensive dogs = experiment: Intraocular pressure and ocular surface hyperemia in normotensive dogs; format: in vivo, dog; set-up: maximum OSH score: scale not given here; settings: 0.1%, once daily for 5 days; for change in vivo at 0.1 %: Canis lupus familiaris, topical, 120 h, read-out: maximum IOP decrease from baseline
Procedure: (§1) (Z)-7-[(1R,2S,3R,5R)-5-Chloro-2-(3,5-dichloro-phenoxymethyl)-3-hydroxy-cyclopentyl]-hept-5-enoic acid (15b) was tested at multiple concentrations in normotensive dogs, dosing once daily for 5 days. At 0.05%, the maximum IOP decrease from baseline was 4.3 mmHg (30%) at 6 h; the maximum OSH score was 0.6 at 6 h. […] This compound was also tested in laser-induced hypertensive monkeys, using one single day dose. At 0.1%, the maximum IOP decrease from baseline was 6 mmHg (19%) at 6 h.
(§2) (Z)-7-[(1R,2S,3R,5R)-5-Chloro-2-(3,5-dichloro-phenoxymethyl)-3-hydroxy-cyclopentyl]-hept-5-enoic acid isopropyl ester (42b) was tested in normotensive dogs at 0.05%, dosing once daily for 5 days. The maximum intraocular pressure (IOP) decrease from baseline was 3 mmHg (19%) at 6 h; the maximum ocular surface hyperemia (OSH) score was 0.6 at 74 h. This compound was also tested in laser-induced hypertensive monkeys, using one single day dose. At 0.01%, the maximum IOP decrease from baseline was 6 mmHg (16%) at 6 h.

[2] = test system: laser-induced hypertensive monkeys; experiment: Intraocular pressure in laser-induced hypertensive monkeys; format: in vivo, monkey; settings: 0.1%, one single day dose; for change in vivo at 0.1 %: Primates, topical, read-out: maximum IOP decrease from baseline
Procedure: as §1, §2

hEP2 [3] = target: T1, hEP2; experiment: Competition binding, [3H]PGE2, human EP2 receptors; set-up: expressed in transfected cells; host or cells: HEK 293; settings: [3H]PGE2, HEK 293 cells stably expressing human EP2; read-out: hEP2 Ki
Outline: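 HEK 293 membranes or cells stably expressing human EP2 were incubated with 10 nM [3H]PGE2 and test compound in HBSS/20 mM Hepes pH 7.3, 60 min at 23° C, then filtered. Non-specific binding defined with 10 μM PGE2; IC50 from single-site fit converted to Ki using KD 40 nM.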

hEP4 [4] = target: T2, hEP4 (Homo sapiens, UniProt P35408); experiment: Radioligand binding, EP4 receptor; set-up: expressed in transfected cells; host or cells: HEK-293; settings: [3H]PGE2, HEK-293 cells expressing EP4
Outline: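 HEK-293 membranes stably expressing human EP4, in TME buffer pH 7.4; competition vs 5 nM [3H]-PGE2, 60 min at 25 °C, stopped by GF/B filtration. Non-specific binding defined with 10^−5 M unlabeled PGE2; duplicates, at least three experiments.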

hEP2 [5] = target: T1, hEP2; experiment: FLIPR calcium signal, hEP2; format: cell-based; set-up: expressed in transfected cells; host or cells: HEK-293(EBNA); settings: HEK-293(EBNA) cells expressing hEP2/Gqs5
Outline: (§3)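 HEK-293(EBNA) cells stably expressing a single human prostaglandin receptor (hDP/Gqs5 chimera for DP), Fluo-4 AM loaded, in HBSS-HEPES pH 7.4 at 37 °C. Peak calcium fluorescence scaled to buffer and receptor standard agonist; 10^−5 M single-point or 10^−5–10^−11 M curves, duplicates, n≥3.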

hEP4 [6] = target: T2, hEP4; experiment: FLIPR calcium signal, hEP4; format: cell-based; set-up: expressed in transfected cells; host or cells: HEK-293(EBNA); settings: HEK-293(EBNA) cells expressing hEP4/Gqs5
Outline: as §3

T2 sequence (P35408 whole entry): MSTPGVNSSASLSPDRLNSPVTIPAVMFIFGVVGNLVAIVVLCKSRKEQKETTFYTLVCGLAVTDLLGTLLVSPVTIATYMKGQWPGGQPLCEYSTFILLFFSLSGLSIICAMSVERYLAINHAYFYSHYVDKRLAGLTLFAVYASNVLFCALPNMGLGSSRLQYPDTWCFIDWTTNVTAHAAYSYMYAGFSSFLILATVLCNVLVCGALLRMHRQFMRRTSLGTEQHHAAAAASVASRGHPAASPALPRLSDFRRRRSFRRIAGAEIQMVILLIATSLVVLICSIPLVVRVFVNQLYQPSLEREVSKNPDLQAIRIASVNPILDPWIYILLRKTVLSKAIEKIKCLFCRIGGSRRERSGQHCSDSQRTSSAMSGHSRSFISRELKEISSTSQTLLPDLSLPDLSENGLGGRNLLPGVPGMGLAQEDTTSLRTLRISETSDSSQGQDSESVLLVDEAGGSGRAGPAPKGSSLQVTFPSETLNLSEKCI
T1 sequence (P43116 whole entry): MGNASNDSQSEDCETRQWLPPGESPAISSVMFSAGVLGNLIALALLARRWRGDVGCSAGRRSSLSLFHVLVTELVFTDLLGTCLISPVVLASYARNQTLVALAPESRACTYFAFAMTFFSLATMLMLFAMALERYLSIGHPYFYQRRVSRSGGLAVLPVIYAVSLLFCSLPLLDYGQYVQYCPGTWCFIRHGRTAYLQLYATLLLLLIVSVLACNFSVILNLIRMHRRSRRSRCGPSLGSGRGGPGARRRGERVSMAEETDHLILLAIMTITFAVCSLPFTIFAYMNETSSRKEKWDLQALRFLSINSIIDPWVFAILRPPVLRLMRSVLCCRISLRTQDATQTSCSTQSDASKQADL

Structure (SMILES)	EC50 (hEP2 [1]) [nM]	maximum IOP decrease from baseline (normotensive dogs) [mmHg]	maximum OSH score (normotensive dogs)	time of maximum IOP decrease (normotensive dogs) [h]	time of maximum OSH score (normotensive dogs) [h]	change in vivo at 0.1 % (normotensive dogs) [%]	maximum IOP decrease from baseline [2] [mmHg]	time of maximum IOP decrease [2] [h]	change in vivo at 0.1 % [2] [%]	Ki (hEP2 [3]) [nM]	Ki (hEP4 [4]) [nM]	EC50 (hEP2 [5]) [nM]	EC50 (hEP4 [6]) [nM]
O=C(O)CCC/C=C\C[C@@H]1[C@@H](COc2cc(C(F)(F)F)cc(C(F)(F)F)c2)[C@H](O)C[C@H]1Cl [Example 15, (Z)-7-[(1R,2S,3R,5R)-2-(3,5-Bis-trifluoromethyl-phenoxymethyl)-5-chloro-3-hydroxy-cyclopentyl]-hept-5-enoic acid]	8	4.8	0.9	100	52	35	11	6	30	8	2290	11	13000
O=C(O)CCC/C=C\C[C@@H]1[C@@H](COc2cccc(C(F)(F)F)c2)[C@H](O)C[C@H]1Cl [Example 24, (Z)-7-[(1R,2S,3R,5R)-5-Chloro-3-hydroxy-2-(3-trifluoromethyl-phenoxymethyl)-cyclopentyl]-hept-5-enoic acid]	2.4	2.5	0.5	78	6	16	10.8	6	28	44	1420	66	9870
Cc1cc(C)cc(OC[C@@H]2[C@@H](C/C=C\CCCC(=O)O)[C@H](Cl)C[C@H]2O)c1 [Example 36, (Z)-7-[(1R,2S,3R,5R)-5-Chloro-2-(3,5-dimethyl-phenoxymethyl)-3-hydroxy-cyclopentyl]-hept-5-enoic acid]	1.4	6.5	1.2	52	28	46	9	2	25	31	1090	27	7720
